Consider ten compounds from patent publication EP4032896A1, “THIAZOLOPYRIMIDONES AS INHIBITORS OF DDR1/2 AND THERAPEUTIC USES THEREOF” (Fundación del Sector Público Estatal Centro Nacional de …, priority 2021, dated 2022).

Assay [1] deals with T1, DDR1 (Homo sapiens, UniProt Q08345).
T1 construct: The enzymes were purchased as a catalytic domain GST Tag DDR1(#PR6913A); purchased ThermoFisher PR6913A
Nature of the assay: LanthaScreen Eu-Kinase Binding Assay (TR-FRET tracer displacement), DDR1. To be noted: catalytic domain GST Tag DDR1; Kinase Tracer 178. The text has this:
(§1) DDR1/2 binding assay: The binding assay relies on the LanthaScreen ™ Eu-Kinase Binding Assay (ThermoFisher Scientfic). This is a kinase assay platform based on measuring the binding and displacement of an Alexa Fluor® conjugate of an ATP-competitive kinase inhibitor or tracer at a kinase active site (Kinase Tracer 178. #PV5593). Binding of the tracer to the kinase is detected by addition of a europium (Eu)-labeled anti-GST antibody (#PV 5594) which specifically labels the kinase of interest. This binding results in a high degree of fluorescence resonance energy transfer (FRET), whereas displacement of the tracer with a kinase inhibitor results in a loss of FRET. The enzymes were purchased as a catalytic domain GST Tag DDR1(#PR6913A) and DDR2 (#PR7167A) from ThermoFisher. Assay conditions were as indicated by the kit manufacturers. Assays were performed in 384-well plates. The final read out was generated using an EnVision plate reader (Perkin-Elmer). The emission ratio was calculated by dividing the acceptor/tracer emission (665 nm) by the antibody/donor emission (615 nm). Values were plotted against the inhibitor concentration and fit to a sigmoid dose-response curve using Activity base by IDBS software.

For assay [2], the target named is T2, DDR1 (Mus musculus, UniProt Q03146).
T2 construct: expressed in transfected cells; host or cells: HEK293T
T2 sequence (Q03146 20-911): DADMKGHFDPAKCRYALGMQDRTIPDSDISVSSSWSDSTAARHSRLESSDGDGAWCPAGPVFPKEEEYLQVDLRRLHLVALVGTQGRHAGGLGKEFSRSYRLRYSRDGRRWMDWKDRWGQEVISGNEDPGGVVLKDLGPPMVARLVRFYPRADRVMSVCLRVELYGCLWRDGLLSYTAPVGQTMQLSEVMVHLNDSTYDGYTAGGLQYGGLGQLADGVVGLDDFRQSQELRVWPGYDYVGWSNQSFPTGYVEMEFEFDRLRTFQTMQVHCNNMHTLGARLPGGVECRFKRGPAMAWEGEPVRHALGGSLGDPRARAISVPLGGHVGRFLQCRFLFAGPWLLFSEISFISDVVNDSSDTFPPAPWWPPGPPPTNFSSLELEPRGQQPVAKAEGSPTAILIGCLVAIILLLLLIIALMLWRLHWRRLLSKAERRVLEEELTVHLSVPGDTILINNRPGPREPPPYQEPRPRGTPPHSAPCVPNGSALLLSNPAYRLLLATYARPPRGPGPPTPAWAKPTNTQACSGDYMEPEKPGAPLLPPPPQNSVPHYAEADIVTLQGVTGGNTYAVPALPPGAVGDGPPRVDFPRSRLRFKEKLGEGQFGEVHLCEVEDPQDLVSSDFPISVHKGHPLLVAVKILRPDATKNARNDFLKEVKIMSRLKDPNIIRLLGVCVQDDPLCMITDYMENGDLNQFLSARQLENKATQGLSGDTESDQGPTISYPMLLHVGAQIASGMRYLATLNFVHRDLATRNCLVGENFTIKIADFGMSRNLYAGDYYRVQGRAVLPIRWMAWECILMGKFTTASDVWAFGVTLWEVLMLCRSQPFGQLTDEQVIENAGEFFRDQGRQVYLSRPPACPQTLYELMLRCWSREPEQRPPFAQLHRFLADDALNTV
In words: Cellular assay: inhibition of Collagen I-induced DDR1 autophosphorylation in HEK293T cells transiently transfected with DDR1 plasmid (Western blot). It is filed as cell-based, human. The following applies: pcDNA3.1 DDR1 WT mouse plasmid, compound 1 h, then 10 µg/mL Collagen I 1 h, P-DDR1 (Y513), read-out: pDDR1 EC50. The protocol: DDR1/2 cellular assay: Transient transfection of HEK293T cells with DDR1 plasmid is used to study the inhibition of the autophosphorylation of DDR1 induced by Collagen I in cells. HEK293T are seeded, 6x10^5 cells per well in 6-well plates and incubated for 6 h at 37 °C, 5% CO2. Then, cells are transfected using Effectene reactive (Quiagen) with pcDNA3.1 DDR1 WT mouse plasmid. Cells are incubated with transfection complexes under normal growth conditions for 24 h. After that, medium is replaced with fresh medium and cells are incubated for an additional 18 h. Eight serial 1:3 compound dilutions are made in DMSO. The compounds are added to each well of 6 well cell plates and are incubated at 37 °C under CO2 atmosphere 1 h. DDR1's autophosphorylation is stimulated by 1h treatment with 10 µg/mL Collagen I. Then, cells are washed in PBS, lyse adding 100 µl of complete RIPA protein lysis buffer (RIPA Buffer, 1 mM DTT, 5 mM Bezamidine, 10 µg/mL Aprotinin, 10 µg/mL Leupeptin, 710 ng/mL Pepstatin A, 100 µg/mL Trypsin Inhibitor, 40 µg/mL Bestatin, completed with PhosSTOP EASYpack and complete Mini, EDTA-free) and incubated 20 minutes at 4 °C and then centrifugated. Lysates are kept at -80 °C. The protein content of the lysates is determined by DC protein assay (Biorad, Ref. 5000116). The proteins are resolved by SDS-PAGE and transferred to nitrocellulose membrane (GE Healthcare #10600003). The membranes are incubated overnight at 4 °C with antibodies specific for DDR1 (D1G6) (Cell signaling #5583), P-DDR1 (Y513) (E1N8F) (Cell Signaling # 14531) they are washed and then incubated with Alexa Fluor 680 goat anti-rabbit IgG secondary antibodies (Invitrogen, A21076). The bands are visualized and quantified using an Odyssey infrared imaging system (Li-Cor Biosciences). The percentage of DDR1 phosphorylation is finally plotted against concentration for each compound and EC50s for intracellular DDR1 inhibition are calculated using ActivityBase from IDBS.

For assay [3], the target named is T3, DDR2 (Homo sapiens, UniProt Q16832).
T3 construct: The enzymes were purchased as a catalytic domain GST Tag DDR1(#PR6913A) and DDR2 (#PR7167A); purchased ThermoFisher PR7167A
T3 sequence (Q16832 563-849 limits assumed): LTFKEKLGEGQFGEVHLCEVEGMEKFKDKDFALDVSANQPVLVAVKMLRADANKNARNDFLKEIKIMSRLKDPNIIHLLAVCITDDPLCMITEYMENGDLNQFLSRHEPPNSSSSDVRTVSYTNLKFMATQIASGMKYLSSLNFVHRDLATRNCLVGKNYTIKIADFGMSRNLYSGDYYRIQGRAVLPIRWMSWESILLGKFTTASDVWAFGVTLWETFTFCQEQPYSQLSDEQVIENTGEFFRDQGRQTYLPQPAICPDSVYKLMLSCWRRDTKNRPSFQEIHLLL
In words: LanthaScreen Eu-Kinase Binding Assay (TR-FRET tracer displacement), DDR2. The following applies: catalytic domain GST Tag DDR2; Kinase Tracer 178.
Source text: as §1
(In TR-FRET formats the signal depends on donor and acceptor labels being close together.)

SMILES strings stand for the structures.

T1 sequence (Q08345 610-905 limits assumed): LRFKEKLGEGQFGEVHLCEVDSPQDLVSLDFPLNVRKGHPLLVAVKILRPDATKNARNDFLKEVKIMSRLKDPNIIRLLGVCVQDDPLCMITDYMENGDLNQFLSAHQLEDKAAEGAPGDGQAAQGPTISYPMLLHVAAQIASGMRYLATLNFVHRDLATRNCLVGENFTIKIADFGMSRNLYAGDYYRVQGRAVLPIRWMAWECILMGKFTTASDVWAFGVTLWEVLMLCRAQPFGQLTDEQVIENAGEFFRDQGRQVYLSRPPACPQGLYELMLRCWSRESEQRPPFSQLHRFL

As to `NS(=O)(=O)c1cccc(Nc2nccc(-c3sc4nccc(=O)n4c3-c3ccc(Cl)c(Cl)c3)n2)c1` [Compound 61, 3-{4-[3-(3,4-Dichloro-phenyl)-5-oxo-5H-thiazolo[3,2-a]pyrimidin-2-yl]-pyrimidin-2-ylamino}-benzenesulfonamide], the half-inhibitory concentration (IC50) in assay [1] turned out to be 12.9 nM; in assay [3] it was 40.8 nM. Also, the concentration for a half-maximal effect (EC50) in assay [2] was found to be 63.2 nM.

For the compound `NS(=O)(=O)c1cccc(Nc2nccc(-c3sc4nccc(=O)n4c3-c3ccc(Cl)cc3)n2)c1` [Compound 43, 3-{4-[3-(4-Chloro-phenyl)-5-oxo-5H-thiazolo[3,2-a]pyrimidin-2-yl]-pyrimidin-2-ylamino}-benzenesulfonamide], the IC50 is 11.6 nM in assay [1] and 29 nM in assay [3]. For the same compound, the half-maximal effective concentration (EC50) in assay [2] was 31.4 nM.

`O=c1ccnc2sc(-c3ccnc(Nc4cccc(N5CCN(CCO)CC5)c4)n3)c(-c3ccccc3)n12` [Compound 31, 2-(2-{3-[4-(2-Hydroxy-ethyl)-piperazin-1-yl]-phenylamino}-pyrimidin-4-yl)-3-phenyl-thiazolo[3,2-a]pyrimidin-5-one]: the IC50 was found to be 15.5 nM in assay [1] and 18 nM in assay [3]. Moreover, the concentration giving a half-maximal response (EC50) in assay [2] worked out at 192 nM.

Regarding `NS(=O)(=O)c1cccc(Nc2nccc(-c3sc4nccc(=O)n4c3-c3cccc(Cl)c3)n2)c1` [Compound 40, 3-{4-[3-(3-Chloro-phenyl)-5-oxo-5H-thiazolo[3,2-a]pyrimidin-2-yl]-pyrimidin-2-ylamino}-benzenesulfonamide], the concentration for half-maximal inhibition (IC50) in assay [1] was determined as 16.4 nM; in assay [3], 61.6 nM. Further, the EC50 in assay [2] is 113 nM.

On to `COc1ccc(-c2c(-c3ccnc(Nc4cccc(N5CCN(CCO)CC5)c4)n3)sc3nccc(=O)n23)cc1Cl` [Compound 62, 3-(3-Chloro-4-methoxy-phenyl)-2-(2-{3-[4-(2-hydroxy-ethyl)-piperazin-1-yl]-phenylamino}-pyrimidin-4-yl)-thiazolo[3,2-a]pyrimidin-5-one], for which the half-inhibitory concentration (IC50) is 10.9 nM in assay [1] and 54 nM in assay [3]. Besides, in assay [2], the half-maximal effective concentration (EC50) was 82.7 nM.

For the compound `COc1ccc(-c2c(-c3ccnc(Nc4ccc(N5CCN(C)CC5)cc4)n3)sc3nccc(=O)n23)cc1` [Compound 54, 3-(4-Methoxy-phenyl)-2-{2-[4-(4-methyl-piperazin-1-yl)-phenylamino]-pyrimidin-4-yl}-thiazolo[3,2-a]pyrimidin-5-one], the IC50 in assay [1] amounted to 4.19 nM; in assay [3] it was 28.8 nM. For the same compound, the half-maximal effective concentration (EC50) in assay [2] was 18.2 nM.

On to `CN1CCN(c2ccc(Nc3nccc(-c4sc5nccc(=O)n5c4-c4ccccc4O)n3)cc2)CC1` [Compound 55, 3-(2-Hydroxy-phenyl)-2-{2-[4-(4-methyl-piperazin-1-yl)-phenylamino]-pyrimidin-4-yl}-thiazolo[3,2-a]pyrimidin-5-one], for which the values for the IC50 in assay [1] and in assay [3] were 2.28 nM and 6.37 nM, respectively. The EC50 in assay [2] stood at 21.8 nM.

Consider `CN1CCN(c2ccc(Nc3nccc(-c4sc5nccc(=O)n5c4-c4ccc(O)cc4)n3)cc2)CC1` [Compound 57, 3-(4-Hydroxy-phenyl)-2-{2-[4-(4-methyl-piperazin-1-yl)-phenylamino]-pyrimidin-4-yl}-thiazolo[3,2-a]pyrimidin-5-one], for which the half-inhibitory concentration (IC50) worked out at 4.54 nM in assay [1] and 15 nM in assay [3]. Also, in assay [2], the EC50 was found to be 21.1 nM.

For the compound `O=c1ccnc2sc(-c3ccnc(Nc4cccc(N5CCN(CCO)CC5)c4)n3)c(C3CCOCC3)n12` [Compound 66, 2-(2-{3-[4-(2-Hydroxy-ethyl)-piperazin-1-yl]-phenylamino}-pyrimidin-4-yl)-3-(tetrahydropyran-4-yl)-thiazolo[3,2-a]pyrimidin-5-one], the 50% inhibitory concentration (IC50) in assay [1] was 321 nM; in assay [3], 1480 nM. Besides, the concentration giving a half-maximal response (EC50) in assay [2] came to 610 nM.

Regarding `NS(=O)(=O)c1cccc(Nc2nccc(-c3sc4nccc(=O)n4c3-c3ccccc3)n2)c1` [Compound 30, 3-[4-(5-Oxo-3-phenyl-5H-thiazolo[3,2-a]pyrimidin-2-yl)-pyrimidin-2-ylamino]-benzenesulfonamide], the figures for the half-inhibitory concentration (IC50) in assay [1] and in assay [3] were 13.9 nM and 50 nM, respectively. Moreover, in assay [2], the EC50 came to 87.4 nM.

As a reminder, the IC50 is the concentration needed to halve the response being measured. High values mean weaker potency, low ones greater potency. One may read the EC50 as the midpoint of the concentration-response curve.
